Assay results: patent US7713966B2, “Heterobicyclic metalloprotease inhibitors” (Alantos Pharmaceuticals Holding, Inc., priority 2006, dated 2010)

Experiments:
Assay type in all cases: biochemical
[1] = biological target: T1, catalytic domain of MMP-13 enzyme (Homo sapiens, UniProt P45452); experiment: Assay for determining MMP-13 inhibition (fluorescent substrate); conditions: read-out: MMP-13 Activity (IC50 MMP-13), Group
T1 construct: catalytic domain of MMP-13 enzyme (produced by Alantos or commercially available from Invitek (Berlin), Cat. # 30100812); purchased Invitek (Berlin) 30100812
Experimental: The typical assay for MMP-13 activity is carried out in assay buffer comprised of 50 mM Tris, pH 7.5, 150 mM NaCl, 5 mM CaCl2 and 0.05% Brij-35. Different concentrations of tested compounds are prepared in assay buffer in 50 μL aliquots. 10 μL of a 50 nM stock solution of catalytic domain of MMP-13 enzyme (produced by Alantos or commercially available from Invitek (Berlin), Cat. # 30100812) is added to the compound solution. The mixture of enzyme and compound in assay buffer is thoroughly mixed and incubated for 10 min at room temperature. Upon the completion of incubation, the assay is started by addition of 40 μl of a 12.5 μM stock solution of MMP-13 fluorescent substrate (Calbiochem, Cat. No. 444235). The time-dependent increase in fluorescence is measured at the 320 nm excitation and 390 nm emission by automatic plate multireader. The IC50 values are calculated from the initial reaction rates.

[2] = biological target: T2, catalytic domain of MMP-3 enzyme (Homo sapiens, UniProt P08254); experiment: Assay for determining MMP-3 inhibition (NFF-3 fluorescent substrate); conditions: read-out: MMP-3 Activity (IC50 MMP-3), Group
T2 construct: catalytic domain of MMP-3 enzyme (Biomol, Cat. No. SE-109); purchased Biomol SE-109
Experimental: The typical assay for MMP-3 activity is carried out in assay buffer comprised of 50 mM MES, pH 6.0, 10 mM CaCl2 and 0.05% Brij-35. Different concentrations of tested compounds are prepared in assay buffer in 50 μL aliquots. 10 μL of a 100 nM stock solution of the catalytic domain of MMP-3 enzyme (Biomol, Cat. No. SE-109) is added to the compound solution. The mixture of enzyme and compound in assay buffer is thoroughly mixed and incubated for 10 min at room temperature. Upon the completion of incubation, the assay is started by addition of 40 μL of a 12.5 μM stock solution of NFF-3 fluorescent substrate (Calbiochem, Cat. No. 480455). The time-dependent increase in fluorescence is measured at the 330 nm excitation and 390 nm emission by an automatic plate multireader. The IC50 values are calculated from the initial reaction rates.

activated MMP-8 enzyme = biological target: T3, activated MMP-8 enzyme (Homo sapiens, UniProt P22894); experiment: Assay for determining MMP-8 inhibition (OmniMMP fluorescent substrate); conditions: read-out: MMP-8 Activity (IC50 MMP-8), Group
T3 construct: purchased Calbiochem 444229
Experimental: The typical assay for MMP-8 activity is carried out in assay buffer comprised of 50 mM Tris, pH 7.5, 150 mM NaCl, 5 mM CaCl2 and 0.05% Brij-35. Different concentrations of tested compounds are prepared in assay buffer in 50 μL aliquots. 10 μL of a 50 nM stock solution of activated MMP-8 enzyme (Calbiochem, Cat. No. 444229) is added to the compound solution. The mixture of enzyme and compound in assay buffer is thoroughly mixed and incubated for 10 min at 37° C. Upon the completion of incubation, the assay is started by addition of 40 μL of a 10 μM stock solution of OmniMMP fluorescent substrate (Biomol, Cat. No. P-126). The time-dependent increase in fluorescence is measured at the 320 nm excitation and 390 nm emission by an automatic plate multireader at 37° C. The IC50 values are calculated from the initial reaction rates.

T2 sequence (P08254 100-272 limits assumed): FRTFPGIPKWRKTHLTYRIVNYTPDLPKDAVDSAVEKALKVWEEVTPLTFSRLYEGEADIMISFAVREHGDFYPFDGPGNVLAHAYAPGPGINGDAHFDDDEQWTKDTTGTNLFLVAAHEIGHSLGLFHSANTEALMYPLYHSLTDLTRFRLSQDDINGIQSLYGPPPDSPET
T3 sequence (P22894 101-467): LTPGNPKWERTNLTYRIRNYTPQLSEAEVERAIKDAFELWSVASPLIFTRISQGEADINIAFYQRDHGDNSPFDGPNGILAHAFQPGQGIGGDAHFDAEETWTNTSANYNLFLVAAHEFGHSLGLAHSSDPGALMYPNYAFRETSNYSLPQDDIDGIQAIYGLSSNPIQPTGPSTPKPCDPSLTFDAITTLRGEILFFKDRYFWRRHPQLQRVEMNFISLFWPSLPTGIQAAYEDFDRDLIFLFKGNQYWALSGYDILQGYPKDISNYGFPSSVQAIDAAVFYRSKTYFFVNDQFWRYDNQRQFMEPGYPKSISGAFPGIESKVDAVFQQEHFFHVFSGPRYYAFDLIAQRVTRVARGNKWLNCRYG

Structure (SMILES) | IC50 [1] | IC50 [2] | IC50 (activated MMP-8 enzyme)
Nc1c(N2CCc3ccc(CNC(=O)c4nc5scc(-c6ccco6)c5c(=O)[nH]4)cc3C2)c(=O)c1=O [2/98] | < 100 nM | < 250 nM | 250 to 20000 nM
COC(=O)c1cccc2nc(C(=O)NCc3ccc4c(c3)NC(=O)CO4)[nH]c(=O)c12 [Example 36] | < 100 nM | 250 to 20000 nM | 250 to 20000 nM
CNC(=O)C(C)c1csc2nc(C(=O)NCc3ccc4c(c3)NC(=O)CO4)[nH]c(=O)c12 (stereo not shown) [2/183] | – | 250 to 20000 nM | < 250 nM
Nc1c(N2CCc3ccc(CNC(=O)c4nc5scc(-c6ccccc6)c5c(=O)[nH]4)cc3C2)c(=O)c1=O [2/110] | < 100 nM | 250 to 20000 nM | 250 to 20000 nM
N#CCc1csc2nc(C(=O)NCc3ccc4c(c3)NC(=O)CO4)[nH]c(=O)c12 [Example 19] | < 100 nM | < 250 nM | < 250 nM
Nc1c(N2CCc3ccc(CNC(=O)c4nc5scc(-c6cnccn6)c5c(=O)[nH]4)cc3C2)c(=O)c1=O [2/186] | < 100 nM | < 250 nM | –
O=C1COc2ccc(CNC(=O)c3nc4ccc(Cl)cc4c(=O)[nH]3)cc2N1 [2/26] | – | < 250 nM | < 250 nM
Cc1sc2nc(C(=O)NCc3ccc4c(c3)NC(=O)CO4)[nH]c(=O)c2c1C(C)c1ccccc1 (stereo not shown) [2/373] | < 100 nM | 250 to 20000 nM | < 250 nM
Cc1csc2nc(C(=O)NCc3ccc4c(c3)CN(c3c(N)c(=O)c3=O)CC4)[nH]c(=O)c12 [2/10] | < 100 nM | < 250 nM | < 250 nM
O=C1COc2ccc(CNC(=O)c3nc4ccc(F)cc4c(=O)[nH]3)cc2N1 [2/23] | < 100 nM | < 250 nM | < 250 nM
Cc1c(Br)sc2nc(C(=O)NCc3ccc4c(c3)NC(=O)CO4)[nH]c(=O)c12 [2/11] | < 100 nM | 250 to 20000 nM | < 250 nM
CC(=O)NCc1ccc2nc(C(=O)NCc3ccc4c(c3)NC(=O)CO4)[nH]c(=O)c2c1 [2/91] | – | < 250 nM | –
CC(C)(C)OC(=O)NCc1ccc2nc(C(=O)NCc3ccc4c(c3)NC(=O)CO4)[nH]c(=O)c2c1 [Example 14] | < 100 nM | 250 to 20000 nM | < 250 nM
Nc1c(N2CCc3ccc(CNC(=O)c4nc5cc(F)c(F)cc5c(=O)[nH]4)cc3C2)c(=O)c1=O [39/24] | < 100 nM | – | 250 to 20000 nM
O=C1COc2ccc(CNC(=O)c3nc4ccc(CNC(=O)C56C7C8C5C5C6C7C85C(=O)O)cc4c(=O)[nH]3)cc2N1 (stereo not shown) [4/3] | < 100 nM | – | < 250 nM
O=C1COc2ccc(CNC(=O)c3nc4scc(-c5cccs5)c4c(=O)[nH]3)cc2N1 [2/49] | – | < 250 nM | 250 to 20000 nM
CCc1ccc2nc(C(=O)NCc3ccc4c(c3)NC(=O)CO4)[nH]c(=O)c2c1 [2/70] | < 100 nM | – | < 250 nM
COc1cccc2nc(C(=O)NCc3ccc4c(c3)NC(=O)CO4)[nH]c(=O)c12 [Example 35] | < 100 nM | < 250 nM | < 250 nM
O=C1COc2ccc(CNC(=O)c3nc4scc(-c5cccnc5)c4c(=O)[nH]3)cc2N1 [2/115] | < 100 nM | – | 250 to 20000 nM
CC(=NO)c1sc2nc(C(=O)NCc3ccc4c(c3)NC(=O)CO4)[nH]c(=O)c2c1C [Example 16] | < 100 nM | – | < 250 nM
CN(C)C(=O)Cc1csc2nc(C(=O)NCc3ccc4c(c3)NC(=O)CO4)[nH]c(=O)c12 [2/160] | < 100 nM | 250 to 20000 nM | < 250 nM

Structure (SMILES) | IC50 [1] | IC50 [2] | IC50 (activated MMP-8 enzyme)
O=C1COc2ccc(CNC(=O)c3nc4scc(-c5nccs5)c4c(=O)[nH]3)cc2N1 [2/265] | < 100 nM | < 250 nM | 250 to 20000 nM
O=C1COc2ccc(CNC(=O)c3nc4cc(C(F)(F)F)ccc4c(=O)[nH]3)cc2N1 [2/43] | 100 to 20000 nM | – | < 250 nM
O=C(Cc1csc2nc(C(=O)NCc3ccc4c(c3)NC(=O)CO4)[nH]c(=O)c12)NCS(=O)(=O)O [2/271] | < 100 nM | 250 to 20000 nM | –
C[C@@H](O)CNc1cccc2nc(C(=O)NCc3ccc4c(c3)NC(=O)CO4)[nH]c(=O)c12 [36/12] | < 100 nM | – | < 250 nM
O=C1COc2ccc(CNC(=O)c3nc4scc(-c5cnccn5)c4c(=O)[nH]3)cc2N1 [2/185] | < 100 nM | < 250 nM | 250 to 20000 nM
N#Cc1ccc2nc(C(=O)NCc3ccc4c(c3)NC(=O)CO4)[nH]c(=O)c2c1 [Example 9] | < 100 nM | < 250 nM | < 250 nM
O=C1COc2ccc(CNC(=O)c3nc4cc(Br)ccc4c(=O)[nH]3)cc2N1 [2/39] | < 100 nM | 250 to 20000 nM | < 250 nM
O=C1COc2ccc(CNC(=O)c3nc4[nH]ncc4c(=O)[nH]3)cc2N1 [39/13] | 100 to 20000 nM | 250 to 20000 nM | –
Cc1c(C(C)O)sc2nc(C(=O)NCc3ccc4c(c3)NC(=O)CO4)[nH]c(=O)c12 (stereo not shown) [Example 21] | < 100 nM | – | < 250 nM
Nc1ccc2nc(C(=O)NCc3ccc4c(c3)NC(=O)CO4)[nH]c(=O)c2c1 [Example 5] | < 100 nM | – | < 250 nM
CCOC(=O)c1sc2nc(C(=O)NCc3ccc4c(c3)NC(=O)CO4)[nH]c(=O)c2c1C [2/28] | < 100 nM | – | 250 to 20000 nM
Cc1sc2nc(C(=O)NCc3ccc4c(c3)NC(=O)CO4)[nH]c(=O)c2c1-c1ccccc1 [2/105] | – | 250 to 20000 nM | 250 to 20000 nM
CNC(=O)Cc1csc2nc(C(=O)NCc3ccc4c(c3)NC(=O)CO4)[nH]c(=O)c12 [2/157] | < 100 nM | – | < 250 nM
Cc1c(CC(=O)O)sc2nc(C(=O)NCc3ccc4c(c3)NC(=O)CO4)[nH]c(=O)c12 [4/12] | < 100 nM | 250 to 20000 nM | –
C[C@@H](Nc1cccc2nc(C(=O)NCc3ccc4c(c3)NC(=O)CO4)[nH]c(=O)c12)c1ccccc1 [36/2] | < 100 nM | – | < 250 nM
O=C1COc2ccc(CNC(=O)c3nc4ccc([N+](=O)[O-])cc4c(=O)[nH]3)cc2N1 [Example 2/57] | < 100 nM | – | 250 to 20000 nM
Cc1c(CO)sc2nc(C(=O)NCc3ccc4c(c3)NCCO4)[nH]c(=O)c12 [Example 20c] | < 100 nM | – | < 250 nM
O=C1COc2ccc(CNC(=O)c3nc4cccc(NCc5ccccc5)c4c(=O)[nH]3)cc2N1 [36/3] | – | 250 to 20000 nM | –
COc1ccc2nc(C(=O)NCc3ccc4c(c3)NC(=O)CO4)[nH]c(=O)c2c1 [2/71] | – | < 250 nM | –
C=Cc1ccc2nc(C(=O)NCc3ccc4c(c3)NC(=O)CO4)[nH]c(=O)c2c1 [2/69] | < 100 nM | – | < 250 nM
